Reference: article doi:10.1101/2025.10.06.680748v1 (bioRxiv, 2025)

Biological target: T1, Fibroblast Activation Protein Alpha (FAP) (Homo sapiens, UniProt Q12884)
T1 sequence (Q12884 27-760 limits assumed): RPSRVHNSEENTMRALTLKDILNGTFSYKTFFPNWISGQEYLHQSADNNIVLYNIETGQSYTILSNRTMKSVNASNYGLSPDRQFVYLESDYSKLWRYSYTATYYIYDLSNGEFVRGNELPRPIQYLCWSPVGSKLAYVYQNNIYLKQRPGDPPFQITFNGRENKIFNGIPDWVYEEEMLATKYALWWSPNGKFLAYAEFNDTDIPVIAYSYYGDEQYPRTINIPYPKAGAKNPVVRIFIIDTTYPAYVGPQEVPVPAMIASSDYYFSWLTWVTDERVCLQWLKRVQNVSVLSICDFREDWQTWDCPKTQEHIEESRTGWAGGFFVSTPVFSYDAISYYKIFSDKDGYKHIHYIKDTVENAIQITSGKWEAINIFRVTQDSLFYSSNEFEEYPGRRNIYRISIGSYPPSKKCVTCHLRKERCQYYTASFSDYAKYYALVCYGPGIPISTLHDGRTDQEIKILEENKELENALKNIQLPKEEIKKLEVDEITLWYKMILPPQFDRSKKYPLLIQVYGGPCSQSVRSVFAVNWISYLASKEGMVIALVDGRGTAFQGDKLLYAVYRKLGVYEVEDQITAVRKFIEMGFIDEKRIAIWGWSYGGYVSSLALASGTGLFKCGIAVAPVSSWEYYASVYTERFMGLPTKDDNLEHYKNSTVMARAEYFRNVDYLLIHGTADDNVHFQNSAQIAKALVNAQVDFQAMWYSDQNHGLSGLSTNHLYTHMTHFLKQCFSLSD
Test: FAP substrate kinetics assay with naïve substrate library
Type: biochemical
Conditions: from the observed C-terminal product

Row | Sequence | Dipeptidyl? (substrate product pair cleaved by FAP as dipeptidyl exopeptidase)
1 | GSNNGQFNMVPLVPR [SL11C_037297] | Yes
2 | GSFHVPETHSWLVPR [SL11C_008744] | No
3 | GPIMPATVSGGIEGR [SL11B_020678] | Yes
4 | GPGVLSEKHAGIEGR [SL11B_022414] | Yes
